Experimental data taken from patent publication US10669258B2, “3-sulfonyl-5-aminopyridine-2,4-diol APJ agonists” (BRISTOL-MYERS SQUIBB COMPANY, priority 2016, dated 2020).
Where two headings read alike, the source gives them in different places.

Molecular target: T1, human APJ receptor (Homo sapiens, UniProt P35414)
T1 construct: expressed in transfected cells; host or cells: HEK293
T1 sequence (P35414 1-380): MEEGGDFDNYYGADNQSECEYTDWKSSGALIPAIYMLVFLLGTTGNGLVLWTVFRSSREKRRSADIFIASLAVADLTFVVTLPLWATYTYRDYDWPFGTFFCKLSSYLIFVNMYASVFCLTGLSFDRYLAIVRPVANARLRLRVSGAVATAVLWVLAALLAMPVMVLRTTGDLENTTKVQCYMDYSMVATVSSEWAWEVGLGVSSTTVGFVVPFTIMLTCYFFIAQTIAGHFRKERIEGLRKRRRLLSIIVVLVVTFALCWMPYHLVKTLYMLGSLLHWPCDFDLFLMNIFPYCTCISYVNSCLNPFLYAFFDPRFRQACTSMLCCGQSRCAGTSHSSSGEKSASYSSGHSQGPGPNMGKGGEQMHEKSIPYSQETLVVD
Experiment: Intracellular cAMP accumulation assay (APJ hcAMP, HTRF)
Type: cell-based
Experimental: Intracellular cAMP Accumulation Assay
HEK293 cells stably expressing human APJ receptor were used to assess the activity of compounds. Cultured cells were detached and resuspended in the cAMP Homogeneous Time-Resolved Fluorescence (HTRF) assay buffer (Cisbio cat; #62AM4PEJ). The assay was performed in 384-well assay plates (Perkin-Elmer; cat #6008289) according to assay protocol provided by the manufacturer. Serial dilutions of a compound together with assay buffer containing […] IBMX and 2 μM forskolin were added to each well containing 5,000 cells and incubated for 30 minutes at room temperature. Subsequently, cAMP D2 reagent was added in the lysis buffer followed by the EuK antibody (Cisbio; cat #62AM4PEJ) and incubated for 60 min. The fluorescence emission ratio was measured using fluorometer. The intracellular cAMP concentrations (compound-stimulated inhibition of forskolin-mediated cAMP production) were calculated by extrapolation from a standard curve using known cAMP concentrations. The EC50 values were obtained by fitting the data to a sigmoidal concentration-response curve with variable slope. The maximal achievable inhibition of forskolin-induced cAMP levels (Ymax) for each compound was expressed as relative percentage of inhibition attained using pyroglutamated apelin-13 ((Pyr1)apelin-13) peptide, which was set to 100%.
The examples disclosed below were tested in the APJ in vitro assays described above and were found having human APJ cyclic AMP (hcAMP) activity. The EC50 value of each compound is presented at the end of the example description.
The biological activity of the exemplified compounds of this invention determined by the assay described above is shown at the end of each example.

[1] = HEK293 cells stably expressing human APJ receptor; inhibition of forskolin-mediated cAMP production; Table 1; read-out: hAPJ cAMP EC50 Potency range
[2] = hAPJ cAMP EC50 Potency range, HEK293 cells stably expressing human APJ receptor; inhibition of forskolin-mediated cAMP production; Table 1
[3] = read-out: hAPJ cAMP EC50 Potency range; HEK293 cells stably expressing human APJ receptor; inhibition of forskolin-mediated cAMP production; Table 1

CCN(c1ccccc1)c1c(-c2ccn(C)n2)nc(O)c(S(=O)(=O)c2ccc(-c3ccccc3C(=O)N(C)C)cc2)c1O [Example 060, 4′-((5-(ethyl(phenyl)amino)-2,4-dihydroxy-6-(1-methyl-1H-pyrazol-3-yl)pyridin-3-yl)sulfonyl)-N,N-dimethyl-[1,1′-biphenyl]-2-carboxamide]
EC50 [1]: 0.01 to 10 nM

CCCCc1nc(O)c(S(=O)(=O)c2ccc(-c3ccccc3C(=O)NC)cc2)c(O)c1N1CCCc2ccccc21 [Example 061, 4′-((6-butyl-5-(3,4-dihydroquinolin-1(2H)-yl)-2,4-dihydroxypyridin-3-yl)sulfonyl)-N-methyl-[1,1′-biphenyl]-2-carboxamide]
EC50 [1]: 0.01 to 10 nM

CCN(c1ccccc1)c1c(CC2CC2)nc(O)c(S(=O)(=O)c2ccc(-c3ccccc3C(=O)N(C)C)cc2)c1O [Example 062, 4′-((6-(cyclopropylmethyl)-5-(ethyl(phenyl)amino)-2,4-dihydroxypyridin-3-yl)sulfonyl)-N,N-dimethyl-[1,1′-biphenyl]-2-carboxamide]
EC50 [1]: 0.01 to 10 nM

CCN(c1ccccc1)c1c(-c2ccn(C)n2)nc(O)c(S(=O)(=O)c2ccc(-c3ccnc(F)c3C)cc2)c1O [Example 063, 5-(ethyl(phenyl)amino)-3-((4-(2-fluoro-3-methylpyridin-4-yl)phenyl)sulfonyl)-6-(1-methyl-1H-pyrazol-3-yl)pyridine-2,4-diol]
EC50 [1]: 0.01 to 10 nM

CCN(c1ccccc1)c1c(-c2ccn(C)n2)nc(O)c(S(=O)(=O)c2ccc(-c3ccncc3C)cc2)c1O [Example 064, 5-(ethyl(phenyl)amino)-6-(1-methyl-1H-pyrazol-3-yl)-3-((4-(3-methylpyridin-4-yl)phenyl)sulfonyl)pyridine-2,4-diol]
EC50 [1]: 0.01 to 10 nM

CCCCc1nc(O)c(S(=O)(=O)c2ccc(-c3ccccc3C(N)=O)cc2)c(O)c1N(C)c1ccccc1 [Example 065, 4′-((6-butyl-2,4-dihydroxy-5-(methyl(phenyl)amino)pyridin-3-yl)sulfonyl)-[1,1′-biphenyl]-2-carboxamide]
EC50 [1]: 0.01 to 10 nM

CCCCc1nc(O)c(C(=O)N2CC[C@H](c3ccccc3)C2)c(O)c1N(CC)c1ccccc1 [Example 066, (R)-(6-butyl-5-(ethyl(phenyl)amino)-2,4-dihydroxypyridin-3-yl)(3-phenylpyrrolidin-1-yl)methanone]
EC50 [2]: 10 to 100 nM

CCCCc1nc(O)c(C(=O)N2CCC(c3ccc(Cl)cn3)C2)c(O)c1N(CC)c1ccccc1 (stereo not drawn) [Example 067, (6-butyl-5-(ethyl(phenyl)amino)-2,4-dihydroxypyridin-3-yl)(3-(5-chloropyridin-2-yl)pyrrolidin-1-yl)methanone]
EC50 [2]: 0.01 to 10 nM

CCCCc1nc(O)c(C(=O)N2CC[C@@H](c3ccccc3)C2)c(O)c1N(CCC)c1ccccc1 [Example 068, (S)-(6-butyl-2,4-dihydroxy-5-(phenyl(propyl)amino)pyridin-3-yl)(3-phenylpyrrolidin-1-yl)methanone]
EC50 [1]: 10 to 100 nM

CCCCc1nc(O)c(C(=O)N2CC[C@H](c3ccccc3)C2)c(O)c1N(CCC)c1ccccc1 [Example 069, (R)-(6-butyl-2,4-dihydroxy-5-(phenyl(propyl)amino)pyridin-3-yl)(3-phenylpyrrolidin-1-yl)methanone]
EC50 [1]: 10 to 100 nM

CCCCc1nc(O)c(C(=O)N2CCC(c3ncc(Cl)cc3F)C2)c(O)c1N(CC)c1ccccc1 (stereo not drawn) [Example 070, (6-butyl-5-(ethyl(phenyl)amino)-2,4-dihydroxypyridin-3-yl)(3-(5-chloro-3-fluoropyridin-2-yl)pyrrolidin-1-yl)methanone]
EC50 [2]: 0.01 to 10 nM

CCCCc1nc(O)c(C(=O)N2CCC(c3ncc(F)cc3F)C2)c(O)c1N(CC)c1ccccc1 (stereo not drawn) [Example 071, (6-butyl-5-(ethyl(phenyl)amino)-2,4-dihydroxypyridin-3-yl)(3-(3,5-difluoropyridin-2-yl)pyrrolidin-1-yl)methanone]
EC50 [2]: 0.01 to 10 nM

CCCCc1nc(O)c(C(=O)N2CCC(c3ncc(Cl)cc3F)C2)c(O)c1N(CC)c1ccccc1 (stereo not drawn) [Example 072, (6-butyl-5-(ethyl(phenyl)amino)-2,4-dihydroxypyridin-3-yl)(3-(5-chloro-3-fluoropyridin-2-yl)pyrrolidin-1-yl)methanone]
EC50 [3]: 0.01 to 10 nM

CCCCc1nc(O)c(C(=O)N2CCC(c3ncc(F)cc3F)C2)c(O)c1N(CC)c1ccccc1 (stereo not drawn) [Example 073, (6-butyl-5-(ethyl(phenyl)amino)-2,4-dihydroxypyridin-3-yl)(3-(3,5-difluoropyridin-2-yl)pyrrolidin-1-yl)methanone]
EC50 [3]: 0.01 to 10 nM

CCCCc1nc(O)c(C(=O)N2CCN(Cc3cccc(Cl)c3Cl)CC2)c(O)c1N(CC)c1ccccc1 [Example 074, (6-butyl-5-(ethyl(phenyl)amino)-2,4-dihydroxypyridin-3-yl)(4-(2,3-dichlorobenzyl)piperazin-1-yl)methanone]
EC50 [2]: 10 to 100 nM

CCCCc1nc(O)c(C(=O)N2CCC(c3ccccc3F)C2)c(O)c1N(CC)c1ccccc1 (stereo not drawn) [Example 075, (6-butyl-5-(ethyl(phenyl)amino)-2,4-dihydroxypyridin-3-yl)(3-(2-fluorophenyl)pyrrolidin-1-yl)methanone]
EC50 [2]: 0.01 to 10 nM

CCCCc1nc(O)c(C(=O)N2CCC(c3ccc(Cl)cn3)C2)c(O)c1N(CC)c1ccccc1 (stereo not drawn) [Example 076, (6-butyl-5-(ethyl(phenyl)amino)-2,4-dihydroxypyridin-3-yl)(3-(5-chloropyridin-2-yl)pyrrolidin-1-yl)methanone]
EC50 [2]: 10 to 100 nM

CCCCc1nc(O)c(S(=O)(=O)c2ccc(Br)cc2)c(O)c1N(CC)c1ccccc1 [Example 077, 3-((4-bromophenyl)sulfonyl)-6-butyl-5-(ethyl(phenyl)amino)pyridine-2,4-diol]
EC50 [1]: 10 to 100 nM

CCCCc1nc(O)c(S(=O)(=O)c2ccc(-c3ccncc3C)cc2)c(O)c1N(CC)c1ccccc1 [Example 078, 6-butyl-5-(ethyl(phenyl)amino)-3-((4-(3-methylpyridin-4-yl)phenyl)sulfonyl)pyridine-2,4-diol]
EC50 [1]: 0.01 to 10 nM

CCCCc1nc(O)c(S(=O)(=O)c2ccc(-c3cccnc3C)cc2)c(O)c1N(CC)c1ccccc1 [Example 079, 6-butyl-5-(ethyl(phenyl)amino)-3-((4-(2-methylpyridin-3-yl)phenyl)sulfonyl)pyridine-2,4-diol]
EC50 [1]: 0.01 to 10 nM

CCCCc1nc(O)c(S(=O)(=O)c2ccc(-c3ccnc(F)c3C)cc2)c(O)c1N(CC)c1ccccc1 [Example 080, 6-butyl-5-(ethyl(phenyl)amino)-3-((4-(2-fluoro-3-methylpyridin-4-yl)phenyl)sulfonyl)pyridine-2,4-diol]
EC50 [1]: 0.01 to 10 nM

CCCCc1nc(O)c(S(=O)(=O)c2ccc(-c3ccnc(OC)c3)cc2)c(O)c1N(CC)c1ccccc1 [Example 081, 6-butyl-5-(ethyl(phenyl)amino)-3-((4-(2-methoxypyridin-4-yl)phenyl)sulfonyl)pyridine-2,4-diol]
EC50 [1]: 0.01 to 10 nM

CCCCc1nc(O)c(S(=O)(=O)c2ccc(-n3cc(Cl)ccc3=O)cc2)c(O)c1N(CC)c1ccccc1 [Example 082, 1-(4-((6-butyl-5-(ethyl(phenyl)amino)-2,4-dihydroxypyridin-3-yl)sulfonyl)phenyl)-5-chloropyridin-2(1H)-one]
EC50 [1]: 0.01 to 10 nM

CCCCc1nc(O)c(S(=O)(=O)c2ccc(-c3ccccc3C#N)cc2)c(O)c1N(CC)c1ccccc1 [Example 083, 4′-((6-butyl-5-(ethyl(phenyl)amino)-2,4-dihydroxypyridin-3-yl)sulfonyl)-[1,1′-biphenyl]-2-carbonitrile]
EC50 [1]: 0.01 to 10 nM

CCCCc1nc(O)c(S(=O)(=O)c2ccccc2)c(O)c1N(CC)c1ccccc1 [Example 084, 6-butyl-5-(ethyl(phenyl)amino)-3-(phenylsulfonyl)pyridine-2,4-diol]
EC50 [1]: 10 to 100 nM

CCCCc1nc(O)c(S(=O)(=O)c2ccc(-c3ccccc3C(N)=O)cc2)c(O)c1N(CC)c1ccccc1 [Example 085, 4′-((6-butyl-5-(ethyl(phenyl)amino)-2,4-dihydroxypyridin-3-yl)sulfonyl)-[1,1′-biphenyl]-2-carboxamide]
EC50 [1]: 0.01 to 10 nM

CCCCc1nc(O)c(S(=O)(=O)c2ccc(-c3ccc(F)nc3C)cc2)c(O)c1N(CC)c1ccccc1 [Example 086, 6-butyl-5-(ethyl(phenyl)amino)-3-((4-(6-fluoro-2-methylpyridin-3-yl)phenyl)sulfonyl)pyridine-2,4-diol]
EC50 [1]: 0.01 to 10 nM
